The text below walks through data of patent publication US11702417B2, “Compounds for improving mRNA splicing” (The General Hospital Corporation, priority 2015, dated 2023).

The subject of the assay is FD (familial dysautomonia) IKBKAP minigene, exon 20 inclusion, in HEK293T cells. The assay can be described thus: Primary splicing assay (FD IKBKAP minigene, Firefly/Renilla luciferase reporter in HEK293T). The class given is cell-based, human. Conditions: Homo sapiens, HEK-293T, Firefly/Renilla ratio, 24 hours of treatment; for Emax: max efficacy in Primary Assay, kinetin and DMSO as positive and negative controls, read-out: Emax (%); for EC (maximum kinetin efficacy): HEK293T, read-out: ECk (compound concentration at which the maximum kinetin efficacy (200 μM) is reached). (In a reporter assay the amount or activity of a reporter protein is the signal.)

Turning to `FCCn1cc(Cl)c2c(NCc3ccco3)nc(Cl)nc21` [(212)], the Emax was 71%.

For the molecule `CNCCn1ccc2c(NCc3ccco3)nc(Cl)nc21` [(213)], the Emax stood at 36%.

Turning to `FCCn1ncc2c(NCc3ccco3)nc(Cl)nc21` [(214)], the EC (maximum kinetin efficacy) turned out to be 11.2 µM and the Emax is 197%.

In the case of `C[C@@H](C#N)n1ccc2c(NCc3ccco3)nc(Cl)nc21` [(216)], the Emax came to 16%.

Take `Clc1nc(NCc2ccncc2)c2cn[nH]c2n1` [(217)]: the EC (maximum kinetin efficacy) amounted to 7.07 µM and the Emax was found to be 151%.

For `OCCn1ncc2c(NCc3ccncc3)nc(Cl)nc21` [(218)], the EC (maximum kinetin efficacy) stood at 21 µM and the Emax amounted to 154%.

Regarding `Clc1nc(NCc2ccncn2)c2cn[nH]c2n1` [(220)], the EC (maximum kinetin efficacy) was 8.62 µM and the Emax was 153%.

For `O=C(NCCO)c1cc2c(NCc3ccco3)nc(Cl)nc2[nH]1` [(221)], the Emax stood at 86%.

Take `Clc1nc(NCc2nccs2)c2cn[nH]c2n1` [(222)]: the EC (maximum kinetin efficacy) came out at 8.99 µM and the maximal response (Emax) was 146%.

Consider `N#Cc1cc2c(NCc3ccco3)nc(Cl)nc2[nH]1` [(223)], for which the Emax amounted to 95%.

`N#CCc1nc2c(NCc3ccco3)nc(Cl)nc2[nH]1` [(224)]: the EC (maximum kinetin efficacy) was 9.49 µM and the Emax was 139%.

Take `OCCCNc1nc2c(NCc3ccco3)nc(Cl)nc2[nH]1` [(225)]: the EC (maximum kinetin efficacy) amounted to 21.1 µM and the Emax came out at 114%.

`Fc1cnccc1CNc1nc(Cl)nc2[nH]ccc12` [(226)]: the EC (maximum kinetin efficacy) worked out at 1.8 µM and the Emax is 191%.

For the molecule `Fc1cnccc1CNc1nc(Cl)nc2[nH]cnc12` [(227)], the EC (maximum kinetin efficacy) was 23.3 µM and the Emax is 163%.

`Clc1nc(NCc2ccncc2Cl)c2cc[nH]c2n1` [(228)]: the EC (maximum kinetin efficacy) amounted to 15.7 µM and the Emax was found to be 152%.

With `Clc1nc(NCc2ccncc2Cl)c2nc[nH]c2n1` [(229)], the Emax is 55%.

With `Clc1nc(NCc2ccco2)c2nc(C3CCC3)[nH]c2n1` [(231)], the Emax was 77%.

Take `COC(=O)c1nc2c(NCc3ccco3)nc(Cl)nc2[nH]1` [(232)]: the Emax amounted to 59%.

Take `CCOc1nc2c(NCc3ccco3)nc(Cl)nc2[nH]1` [(233)]: the EC (maximum kinetin efficacy) came to 1.59 µM and the Emax turned out to be 152%.

`Clc1nc(NCc2ccncc2)c2nc(C3CCC3)[nH]c2n1` [(234)]: the EC (maximum kinetin efficacy) turned out to be 19.9 µM and the Emax is 94%.

Consider `CNCc1nc2c(NCc3ccco3)nc(Cl)nc2[nH]1` [(235)], for which the Emax came to 80%.

For the molecule `Clc1nc(NCc2ccncn2)c2nc(C3CCC3)[nH]c2n1` [(236)], the Emax was 83%.

In the case of `COc1cc(CNc2nc(Cl)nc3[nH]ccc23)ccn1` [(237)], the Emax was found to be 21%.

For `NC(=O)c1nc2c(NCc3ccco3)nc(Cl)nc2[nH]1` [(238)], the EC (maximum kinetin efficacy) is 64.8 µM and the Emax came out at 64%.

Consider `CC(C)Oc1nc2c(NCc3ccco3)nc(Cl)nc2[nH]1` [(239)], for which the EC (maximum kinetin efficacy) is 2.6 µM and the Emax is 147%.

Take `Clc1nc(NCc2nccs2)c2nc(C3CCC3)[nH]c2n1` [(240)]: the EC (maximum kinetin efficacy) is 18.2 µM and the maximal response (Emax) is 124%.

Take `COc1cc(CNc2nc(Cl)nc3[nH]cnc23)ccn1` [(241)]: the Emax was 13%.

Consider `NC(=O)c1nc2c(NCc3ccncc3)nc(Cl)nc2[nH]1` [(242)], for which the Emax came out at 31%.

Consider `CCNc1nc2c(NCc3ccco3)nc(Cl)nc2[nH]1` [(243)], for which the EC (maximum kinetin efficacy) amounted to 17 µM and the Emax turned out to be 120%.

`CNc1nc2c(NCc3ccncc3)nc(Cl)nc2[nH]1` [(244)]: the EC (maximum kinetin efficacy) was found to be 7.05 µM and the Emax stood at 150%.

In the case of `CNc1nc2c(NCc3nccs3)nc(Cl)nc2[nH]1` [(245)], the EC (maximum kinetin efficacy) came out at 15.4 µM and the Emax came out at 122%.

For `Cc1noc(-c2cc3c(NCc4ccco4)nc(Cl)nc3[nH]2)n1` [(246)], the Emax turned out to be 22%.

On to `CNc1nc2c(NCc3ccncn3)nc(Cl)nc2[nH]1` [(247)], for which the EC (maximum kinetin efficacy) is 5.41 µM and the maximal effect (Emax) is 215%.

In the case of `O=c1cc(CNc2nc(Cl)nc3[nH]ccc23)cc[nH]1` [(248)], the Emax was determined as 10%.

Take `OCCCOc1nc2c(NCc3ccco3)nc(Cl)nc2[nH]1` [(249)]: the EC (maximum kinetin efficacy) turned out to be 0.72 µM and the Emax was 256%.

As to `CNC(=O)c1nc2c(NCc3ccncc3)nc(Cl)nc2[nH]1` [(250)], the EC (maximum kinetin efficacy) was 62.8 µM and the Emax was 63%.

For the molecule `Clc1cc(NCc2ccncc2)c2nc[nH]c2n1` [(251)], the EC (maximum kinetin efficacy) stood at 3.65 µM and the Emax was 258%.

For the molecule `CC(=O)Oc1c[nH]c2nc(Cl)nc(NCc3ccco3)c12` [(252)], the Emax was 43%.

As to `Clc1nc(NCc2ccco2)c2ncsc2n1` [(253)], the EC (maximum kinetin efficacy) was 11.8 µM and the Emax amounted to 187%.

In the case of `OCCn1cnc2c(NCc3ccco3)cc(Cl)nc21` [(254)], the EC (maximum kinetin efficacy) was 13.2 µM and the Emax was 145%.

On to `O=c1cc(CNc2nc(Cl)nc3[nH]cnc23)cc[nH]1` [(255)], for which the Emax worked out at 42%.

`Clc1nc(NCc2ccncc2)c2ncsc2n1` [(256)]: the EC (maximum kinetin efficacy) was 17.4 µM and the Emax was found to be 129%.

On to `O=C1Cc2c(NCc3ccncc3)nc(Cl)nc2N1` [(257)], for which the Emax turned out to be 62%.

As for `CNC(=O)c1nc2c(NCc3ccncn3)nc(Cl)nc2[nH]1` [(258)], the EC (maximum kinetin efficacy) was 15.8 µM and the Emax was 165%.

On to `Clc1nc(NCc2ccco2)c2nc(OC3CCC3)[nH]c2n1` [(259)], for which the EC (maximum kinetin efficacy) was found to be 0.38 µM and the Emax was found to be 109%.

`CCOc1nc2c(NCc3nccs3)nc(Cl)nc2[nH]1` [(260)]: the EC (maximum kinetin efficacy) is 3.43 µM and the Emax was determined as 130%.

On to `COc1nc2c(NCc3ccncn3)nc(Cl)nc2[nH]1` [(261)], for which the EC (maximum kinetin efficacy) was determined as 2.62 µM and the Emax came to 143%.

On to `CNC(=O)c1nc2c(NCc3ccco3)nc(Cl)nc2[nH]1` [(262)], for which the EC (maximum kinetin efficacy) was 28.4 µM and the Emax was determined as 64%.

In the case of `Cc1cnccc1CNc1nc(Cl)nc2[nH]ccc12` [(263)], the EC (maximum kinetin efficacy) worked out at 27.4 µM and the Emax was determined as 105%.

Consider `Ic1nc(NCc2ccco2)c2nc[nH]c2n1` [(264)], for which the Emax turned out to be 44%.

`Clc1nc(NCc2nccs2)c2nc(OC3COC3)[nH]c2n1` [(265)]: the EC (maximum kinetin efficacy) came out at 7.33 µM and the Emax came to 119%.

For the molecule `Brc1nc(NCc2ccco2)c2nc[nH]c2n1` [(266)], the EC (maximum kinetin efficacy) was 8.52 µM and the Emax came to 106%.

For the molecule `Clc1nc(NCc2ccncn2)c2nc(OC3COC3)[nH]c2n1` [(267)], the EC (maximum kinetin efficacy) was determined as 2.4 µM and the Emax amounted to 183%.

With `Cc1cnccc1CNc1nc(Cl)nc2[nH]cnc12` [(268)], the Emax stood at 19%.

Consider `Clc1nc(NCc2ccncc2)c2nc(OC3COC3)[nH]c2n1` [(272)], for which the EC (maximum kinetin efficacy) stood at 2.6 µM and the Emax was determined as 155%.

As to `CCOc1nc2c(NCc3ccncc3)nc(Cl)nc2[nH]1` [(273)], the EC (maximum kinetin efficacy) was 0.62 µM and the Emax came to 254%.

With `OCCCOc1nc2c(NCc3nccs3)nc(Cl)nc2[nH]1` [(276)], the EC (maximum kinetin efficacy) came to 1.13 µM and the Emax is 188%.

Consider `CC(C)Oc1nc2c(NCc3ccncc3)nc(Cl)nc2[nH]1` [(277)], for which the EC (maximum kinetin efficacy) is 0.46 µM and the Emax came out at 197%.

`COc1nc2c(NCc3nccs3)nc(Cl)nc2n1CCO` [(278)]: the EC (maximum kinetin efficacy) stood at 6.37 µM and the Emax was determined as 141%.

For the molecule `Nc1nc(NCc2ccco2)c2nn[nH]c2n1` [(279)], the Emax stood at 54%.

As for `CNOc1nc2c(NCc3ccco3)nc(Cl)nc2[nH]1` [(280)], the Emax turned out to be 25%.

Regarding `Clc1cc(NCc2nccs2)n2ncnc2n1` [(281)], the Emax amounted to 17%.

For `CCCOc1nc2c(NCc3ccncc3)nc(Cl)nc2[nH]1` [(282)], the EC (maximum kinetin efficacy) was 0.42 µM and the maximum response (Emax) was found to be 233%.

In the case of `Clc1cc(NCc2ccncc2)n2ncnc2n1` [(283)], the Emax was 29%.

Regarding `Clc1cc(NCc2ccco2)n2ncnc2n1` [(284)], the Emax came to 27%.

As to `Clc1cc(NCc2ccncn2)n2ncnc2n1` [(286)], the Emax was 38%.

`COc1nc2c(NCc3ccncc3)nc(Cl)nc2n1CCO` [(287)]: the EC (maximum kinetin efficacy) amounted to 7.56 µM and the Emax came to 106%.

Consider `Clc1cc(NCc2ccco2)n2ccnc2n1` [(288)], for which the Emax amounted to 56%.

In the case of `Clc1nc(NCc2nccs2)c2nc(OC3CCC3)[nH]c2n1` [(289)], the EC (maximum kinetin efficacy) is 0.87 µM and the Emax was 128%.

In the case of `COCCOc1nc2c(NCc3ccncc3)nc(Cl)nc2[nH]1` [(290)], the EC (maximum kinetin efficacy) was found to be 2.04 µM and the Emax is 238%.

As to `COCCCOc1nc2c(NCc3ccncc3)nc(Cl)nc2[nH]1` [(291)], the EC (maximum kinetin efficacy) was determined as 3.47 µM and the Emax was found to be 165%.

With `CCCOc1nc2c(NCc3ccco3)nc(Cl)nc2[nH]1` [(292)], the EC (maximum kinetin efficacy) was determined as 0.24 µM and the Emax is 312%.

Turning to `COCCOc1nc2c(NCc3ccco3)nc(Cl)nc2[nH]1` [(293)], the EC (maximum kinetin efficacy) was found to be 1.78 µM and the Emax was found to be 169%.

With `Clc1nc(NCc2ccncc2)c2nc(OC3CCC3)[nH]c2n1` [(294)], the EC (maximum kinetin efficacy) came out at 0.44 µM and the Emax was 183%.

As for `Clc1cc(NCc2nccs2)n2ccnc2n1` [(295)], the Emax was determined as 54%.

As for `COCCCOc1nc2c(NCc3ccco3)nc(Cl)nc2[nH]1` [(296)], the EC (maximum kinetin efficacy) was 1.81 µM and the Emax is 178%.

By Emax is commonly meant the maximal effect, on the per cent scale that the assay sets.
